According to PubChem BioAssay AID330 (DTP/NCI, 2004):
Where “and” joins values, the source holds several entries; their conditions need not be identical. Equal entries are not always repeated. Toxic doses and inconclusive results are not listed. Rule for the calls: active = survival T/C of 150% or more; inactive = T/C below 125% in these data.

Tested on: P388 leukemia ip, CD2F1 mice, survival T/C
Assay: NCI In Vivo Anticancer Drug Screen. Data for tumor model P388 Leukemia (intraperitoneal) in CD2F1 (CDF1) mice
Settings: endpoint: median survival time, higher = longer survival
Method in brief: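 Mice carrying the transplanted tumor received test compound or vehicle. Survival was recorded in each group, and the value is the treated-group measurement divided by that of the vehicle-treated control group.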

[1] = dose: 50.0 mg/kg/injection, schedule: Q01DX005 (ip), vehicle: saline with Tween-80
[2] = dose: 100.0 mg/kg/injection, schedule: Q01DX005 (ip), vehicle: saline with Tween-80
[3] = dose: 200.0 mg/kg/injection, schedule: Q01DX005 (ip), vehicle: saline with Tween-80
[4] = dose: 50.0 mg/kg/injection, schedule: Q01DX005 (ip), vehicle: saline
[5] = dose: 100.0 mg/kg/injection, schedule: Q01DX005 (ip), vehicle: saline
[6] = dose: 200.0 mg/kg/injection, schedule: Q01DX005 (ip), vehicle: saline
[7] = dose: 25.0 mg/kg/injection, schedule: Q01DX009 (ip), vehicle: saline

Measured: T/C

CCCCCCCCCCCOC(=O)c1ccc(O)cc1
inactive: dose: 12.5 mg/kg/injection, schedule: Q01DX009 (ip), vehicle: saline with Tween-80 98 % of control | dose: 25.0 mg/kg/injection, schedule: Q01DX009 (ip), vehicle: saline with Tween-80 102 % of control | dose: 50.0 mg/kg/injection, schedule: Q01DX009 (ip), vehicle: saline with Tween-80 105 % of control and 106 % of control | dose: 100.0 mg/kg/injection, schedule: Q01DX009 (ip), vehicle: saline with Tween-80 103 % of control

Cc1cc(=O)n(-c2ccc([N+](=O)[O-])cc2Cl)c(C)c1C(=O)O
inactive: [1] 103 % of control | [2] 96 % of control | [3] 106 % of control

Cc1cn(O)ccc1=S
inactive: dose: 100.0 mg/kg/injection, schedule: Q04DX002 (ip), vehicle: Klucel (hydroxypropylcellulose) (HPC) 101 % of control | dose: 200.0 mg/kg/injection, schedule: Q04DX002 (ip), vehicle: Klucel (hydroxypropylcellulose) (HPC) 99 % of control | dose: 400.0 mg/kg/injection, schedule: Q04DX002 (ip), vehicle: Klucel (hydroxypropylcellulose) (HPC) 101 % of control

COc1cc(C2c3cc4c(cc3OC(C)(OC)C2C(C)=O)OCO4)cc(OC)c1OC (centres undefined)
inactive: dose: 60.0 mg/kg/injection, schedule: Q01DX005 (ip), vehicle: saline with Tween-80 90 % of control | dose: 120.0 mg/kg/injection, schedule: Q01DX005 (ip), vehicle: saline with Tween-80 94 % of control | dose: 240.0 mg/kg/injection, schedule: Q01DX005 (ip), vehicle: saline with Tween-80 95 % of control

CCOC(=O)Nc1nc2ccccc2n1CN1CCOCC1
inactive: dose: 25.0 mg/kg/injection, schedule: Q01DX005 (ip), vehicle: Klucel (hydroxypropylcellulose) (HPC) 106 % of control | dose: 50.0 mg/kg/injection, schedule: Q01DX005 (ip), vehicle: Klucel (hydroxypropylcellulose) (HPC) 106 % of control | dose: 100.0 mg/kg/injection, schedule: Q01DX005 (ip), vehicle: Klucel (hydroxypropylcellulose) (HPC) 105 % of control | dose: 200.0 mg/kg/injection, schedule: Q01DX005 (ip), vehicle: Klucel (hydroxypropylcellulose) (HPC) 115 % of control

O=C(N/N=C/C(O)C(O)C(O)C(O)C(=O)O)c1ccncc1 (centres undefined)
inactive: [4] 99 % of control | [5] 93 % of control | [6] 100 % of control

O=C1/C(=C/c2ccc(F)cc2)SC(=S)N1c1ccc(Cl)c(Cl)c1
inactive: [7] 91 % of control and 95 % of control | dose: 50.0 mg/kg/injection, schedule: Q01DX009 (ip), vehicle: saline 104 % of control and 91 % of control and 94 % of control | dose: 100.0 mg/kg/injection, schedule: Q01DX009 (ip), vehicle: saline 100 % of control and 94 % of control | dose: 200.0 mg/kg/injection, schedule: Q01DX009 (ip), vehicle: saline 108 % of control and 124 % of control and 91 % of control

O=c1[nH]cnc2c1ccn2C1OC(CO)C(O)C1O (centres undefined)
inactive: dose: 3.0 mg/kg/injection, schedule: Q01DX009 (ip), vehicle: saline with Tween-80 100 % of control | dose: 6.0 mg/kg/injection, schedule: Q01DX009 (ip), vehicle: saline with Tween-80 100 % of control | dose: 12.0 mg/kg/injection, schedule: Q01DX009 (ip), vehicle: saline with Tween-80 104 % of control

Cc1c(C)c(C[P+](CCP(c2ccccc2)c2ccccc2)(c2ccccc2)c2ccccc2)c(C)c(C)c1C[P+](CCP(c1ccccc1)c1ccccc1)(c1ccccc1)c1ccccc1
inactive: dose: 3.12 mg/kg/injection, schedule: Q04DX002 (ip), vehicle: saline with Tween-80 100 % of control | dose: 6.25 mg/kg/injection, schedule: Q04DX002 (ip), vehicle: saline with Tween-80 102 % of control | dose: 12.5 mg/kg/injection, schedule: Q04DX002 (ip), vehicle: saline with Tween-80 100 % of control and 101 % of control

c1ccc2c(c1)Sc1ccccc1N2Cc1cnc[nH]1
inactive: dose: 50.0 mg/kg/injection, schedule: Q01DX009 (ip), vehicle: Klucel (hydroxypropylcellulose) (HPC) 101 % of control | dose: 50.0 mg/kg/injection, schedule: Q01DX009 (ip), vehicle: alcohol 114 % of control | dose: 100.0 mg/kg/injection, schedule: Q01DX009 (ip), vehicle: Klucel (hydroxypropylcellulose) (HPC) 109 % of control | dose: 100.0 mg/kg/injection, schedule: Q01DX009 (ip), vehicle: alcohol 114 % of control | dose: 200.0 mg/kg/injection, schedule: Q01DX009 (ip), vehicle: Klucel (hydroxypropylcellulose) (HPC) 118 % of control

N/C=N/OCc1ccccc1
inactive: [4] 101 % of control | [5] 104 % of control | [6] 105 % of control

CSC(=S)/C(=C(/[O-])c1ccccc1)[n+]1cccc(C)c1
inactive: dose: 2.5 mg/kg/injection, schedule: Q04DX002 (ip), vehicle: saline with Tween-80 99 % of control | dose: 5.0 mg/kg/injection, schedule: Q04DX002 (ip), vehicle: saline with Tween-80 106 % of control | dose: 10.0 mg/kg/injection, schedule: Q04DX002 (ip), vehicle: saline with Tween-80 106 % of control

NC(=O)c1ncnc2nc[nH]c12
inactive: dose: 1.56 mg/kg/injection, schedule: Q01DX005 (ip), vehicle: saline with Tween-80 100 % of control and 102 % of control and 96 % of control | dose: 3.13 mg/kg/injection, schedule: Q01DX005 (ip), vehicle: saline with Tween-80 100 % of control and 105 % of control | dose: 12.5 mg/kg/injection, schedule: Q01DX005 (ip), vehicle: saline with Tween-80 111 % of control and 114 % of control

N#Cc1c2ccccc2nc2ccccc12
inactive: [1] 100 % of control | [2] 96 % of control | [3] 89 % of control

N#Cc1c2c(c(=S)n(-c3ccc(Cl)cc3)c1N)CCCC2
inactive: dose: 60.0 mg/kg/injection, schedule: Q01DX005 (ip), vehicle: Klucel + Tween-80 92 % of control | dose: 120.0 mg/kg/injection, schedule: Q01DX005 (ip), vehicle: Klucel + Tween-80 91 % of control | dose: 240.0 mg/kg/injection, schedule: Q01DX005 (ip), vehicle: Klucel + Tween-80 91 % of control

C[N+]1(C)CCOCC1
inactive: dose: 1.56 mg/kg/injection, schedule: Q01DX009 (ip), vehicle: saline 94 % of control | dose: 6.25 mg/kg/injection, schedule: Q01DX009 (ip), vehicle: saline 100 % of control and 101 % of control | dose: 12.5 mg/kg/injection, schedule: Q01DX009 (ip), vehicle: saline 98 % of control | [7] 88 % of control
